The structures appear in SMILES notation.

The assay has as its target MAGE-A11:PCF11 (Homo sapiens (Human), UniProt P43364). The experiment in a line: TR-FRET single point screening at 15 μM. Format: binding. Details: unit not given here. In outline: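 Competition TR-FRET: compounds at final 15 μM mixed with 200 nM FAM-PCF11_4, 5 nM GST-MAGEA11 and 5 nM Tb-anti-GST in Tris pH 7.5/MgCl2/BSA/DTT buffer, room temperature, 90 min. Emission ratio 520/490 nm (340 nm excitation) expressed as % inhibition relative to positive and negative controls.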

The mark [1] stands for this setting: single point TR-FRET screening at 15 μM against MAGE-A11:PCF11.
[2] abbreviates: single point TR-FRET screening of quinoline compounds against MAGE-A11:PCF11, 15 μM.

Chain of MAGE-A11:PCF11 (P43364 218-429): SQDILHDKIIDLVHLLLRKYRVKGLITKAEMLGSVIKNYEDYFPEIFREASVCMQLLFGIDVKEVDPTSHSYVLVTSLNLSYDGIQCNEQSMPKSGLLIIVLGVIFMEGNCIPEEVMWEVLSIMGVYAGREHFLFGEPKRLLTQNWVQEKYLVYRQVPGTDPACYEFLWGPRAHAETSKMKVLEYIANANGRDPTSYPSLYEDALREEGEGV

On to `CCCN(CCCNc1c2ccc(Cl)cc2nc2ccc(OC)cc12)Cc1ccoc1` [SJ000520937], for which, under setting [1], the TR-FRET signal is −394.6. As for `CCCN(CCCNc1c2ccc(Cl)cc2nc2ccc(OC)cc12)CC1CCCCC1` [SJ000520938], under setting [1], the TR-FRET signal was −163.9.

The compound `CCCN(CCCNc1c2ccc(Cl)cc2nc2ccc(OC)cc12)CC(CC)CC` [SJ000520939] returned a TR-FRET signal under setting [1] of −160.3. Regarding `CCCN(CCCNc1c2ccc(Cl)cc2nc2ccc(OC)cc12)Cc1ccc2c(c1)OCO2` [SJ000520940], the TR-FRET signal under setting [1] is on record as −193.5. As for `CCCCCN(CCC)CCCNc1c2ccc(Cl)cc2nc2ccc(OC)cc12` [SJ000520941], under setting [1], the TR-FRET signal is on record as −210.3. Regarding `CCCN(CCCNc1c2ccc(Cl)cc2nc2ccc(OC)cc12)Cc1ccc(F)c(F)c1` [SJ000520942], under setting [2], the TR-FRET signal is recorded as 0.9703. On to `CCCN(CCCNc1c2ccc(Cl)cc2nc2ccc(OC)cc12)Cc1ccc(OC)cc1` [SJ000520943], for which, under setting [1], the TR-FRET signal is on record as −241.4. Under setting [1], `CCCN(CCCNc1c2ccc(Cl)cc2nc2ccc(OC)cc12)Cc1ccccc1F` [SJ000520944] yielded a TR-FRET signal of −118.6. With `CCCN(CCCNc1c2ccc(Cl)cc2nc2ccc(OC)cc12)Cc1cccc(F)c1` [SJ000520945], under setting [2], the TR-FRET signal is reported as −90.13. `CCCN(CCCNc1c2ccc(Cl)cc2nc2ccc(OC)cc12)Cc1ccc(F)cc1` [SJ000520946] showed a TR-FRET signal under setting [1] of −141.7. `CCCN(CCCNc1c2ccc(Cl)cc2nc2ccc(OC)cc12)Cc1ccccc1[N+](=O)[O-]` [SJ000520947] yielded a TR-FRET signal under setting [1] of −228.3. `CCCN(CCCNc1c2ccc(Cl)cc2nc2ccc(OC)cc12)Cc1cccc([N+](=O)[O-])c1` [SJ000520948] returned a TR-FRET signal under setting [2] of −10.74.

`CCCN(CCCNc1c2ccc(Cl)cc2nc2ccc(OC)cc12)Cc1ccc([N+](=O)[O-])cc1` [SJ000520949] showed a TR-FRET signal under setting [2] of −9.039. For `CCCN(CCCNc1c2ccc(Cl)cc2nc2ccc(OC)cc12)Cc1ccccc1OC` [SJ000520950], the TR-FRET signal under setting [1] is reported as −271.1.

With `CCCN(CCCNc1c2ccc(Cl)cc2nc2ccc(OC)cc12)Cc1ccccc1C(=O)O` [SJ000520951], the TR-FRET signal under setting [1] is reported as −258.6.

In turn, `CCCN(CCCNc1c2ccc(Cl)cc2nc2ccc(OC)cc12)Cc1cccc2ccccc12` [SJ000520952] displayed a TR-FRET signal under setting [2] of −40.77. Under setting [1], `CCCN(CCCNc1c2ccc(Cl)cc2nc2ccc(OC)cc12)Cc1ccc2ccccc2c1` [SJ000520953] returned a TR-FRET signal of −129.1. Take `CCCN(CCCNc1c2ccc(Cl)cc2nc2ccc(OC)cc12)Cc1cccc(C)c1` [SJ000520954]: the TR-FRET signal under setting [1] is listed as −157.8. Turning to `CCCN(CCCNc1c2ccc(Cl)cc2nc2ccc(OC)cc12)Cc1ccc(N(C)C)cc1` [SJ000520955], the TR-FRET signal under setting [2] is on record as −10.06.

Turning to `CCCN(CCCNc1c2ccc(Cl)cc2nc2ccc(OC)cc12)Cc1ccc(Cl)cc1Cl` [SJ000520956], the TR-FRET signal under setting [2] is 9.598. In turn, `CCCN(CCCNc1c2ccc(Cl)cc2nc2ccc(OC)cc12)Cc1ccc(OC)c(OC)c1` [SJ000520957] yielded a TR-FRET signal under setting [1] of −175.5. `CCCN(CCCNc1c2ccc(Cl)cc2nc2ccc(OC)cc12)CCCc1ccccc1` [SJ000520958] gave a TR-FRET signal under setting [1] of −267.2. Same read-out and setting: in the case of `CCCN(CCCNc1c2ccc(Cl)cc2nc2ccc(OC)cc12)CC(C)CC` (stereo not drawn) [SJ000520959] it was −264.8.

The compound `CCCN(CCCNc1c2ccc(Cl)cc2nc2ccc(OC)cc12)Cc1cc(C)ccc1C` [SJ000520960] registered a TR-FRET signal under setting [1] of −119.3.

As to `CCCN(CCCNc1c2ccc(Cl)cc2nc2ccc(OC)cc12)Cc1cccc(OC)c1` [SJ000520961], the TR-FRET signal under setting [1] was −244.6. Under setting [1], `CCCN(CCCNc1c2ccc(Cl)cc2nc2ccc(OC)cc12)CCc1ccccc1` [SJ000520962] had a TR-FRET signal of −591.7.

In turn, `CCCCCCN(CCC)CCCNc1c2ccc(Cl)cc2nc2ccc(OC)cc12` [SJ000520963] had a TR-FRET signal under setting [1] of −153.7. Under setting [1], `COc1ccc2nc3cc(Cl)ccc3c(NCCCNCc3cccn3C)c2c1` [SJ000520985] yielded a TR-FRET signal of −402.5. Take `COc1ccc2nc3cc(Cl)ccc3c(NCCCNCc3cccnc3)c2c1` [SJ000520986]: the TR-FRET signal under setting [1] is reported as −409. Same read-out and setting: in the case of `COc1ccc2nc3cc(Cl)ccc3c(NCCCNCc3cn(C)c4ccccc34)c2c1` [SJ000520987] it was −252.4. As to `COc1ccc2nc3cc(Cl)ccc3c(NCCCNCc3cccc(OC(F)(F)F)c3)c2c1` [SJ000520988], the TR-FRET signal under setting [2] was −73.54. With `COc1ccc2nc3cc(Cl)ccc3c(NCCCNCc3nccs3)c2c1` [SJ000520989], the TR-FRET signal under setting [1] is −355.2. On to `COc1ccc2nc3cc(Cl)ccc3c(NCCCNCc3cccc(C(F)(F)F)c3)c2c1` [SJ000520990], for which the TR-FRET signal under setting [1] is −408.1. Compound `COc1ccc2nc3cc(Cl)ccc3c(NCCCNCc3cccc4c3OCO4)c2c1` [SJ000520991] yielded a TR-FRET signal under setting [1] of −257.1.

Compound `COc1ccc2nc3cc(Cl)ccc3c(NCCCNCc3ccc(OC(F)(F)F)cc3)c2c1` [SJ000520992] showed a TR-FRET signal under setting [1] of −201. Same read-out and setting: in the case of `COc1ccc2nc3cc(Cl)ccc3c(NCCCNCc3cc(F)ccc3OC)c2c1` [SJ000520993] it was −365.4; in that of `COc1ccc2nc3cc(Cl)ccc3c(NCCCNCCC(C)(C)C)c2c1` [SJ000520994], −456.3.

In turn, `CCCCNCCCNc1c2ccc(Cl)cc2nc2ccc(OC)cc12` [SJ000520995] gave a TR-FRET signal under setting [1] of −405.5. The same measure, in the same setting: to `COc1ccc2nc3cc(Cl)ccc3c(NCCCNCc3cc(Br)cs3)c2c1` [SJ000520996] belongs −287.6; to `COc1ccc2nc3cc(Cl)ccc3c(NCCCNCc3cc4ccccc4o3)c2c1` [SJ000520997], −146.7. As for `COc1ccc(F)c(CNCCCNc2c3ccc(Cl)cc3nc3ccc(OC)cc23)c1` [SJ000520998], under setting [1], the TR-FRET signal was −355. Under setting [1], `COc1ccc2nc3cc(Cl)ccc3c(NCCCNCc3c(F)cccc3C(F)(F)F)c2c1` [SJ000520999] registered a TR-FRET signal of −116.7. Under setting [1], `COc1ccc2nc3cc(Cl)ccc3c(NCCCNCc3cc4ccccc4s3)c2c1` [SJ000521000] came in with a TR-FRET signal of −220.4. Compound `COc1ccc2nc3cc(Cl)ccc3c(NCCCNCc3cc(OC(F)(F)F)ccc3OC)c2c1` [SJ000521001] had a TR-FRET signal under setting [1] of −231.8. Compound `COc1ccc2nc3cc(Cl)ccc3c(NCCCNCc3cc(C(F)(F)F)ccc3OC)c2c1` [SJ000521002] had a TR-FRET signal under setting [1] of −290.2. `COc1ccc2nc3cc(Cl)ccc3c(NCCCNCC3CCOC3)c2c1` (stereo not drawn) [SJ000521003] showed a TR-FRET signal under setting [1] of −442.3. Still for that read-out and setting: in the case of `COc1ccc2nc3cc(Cl)ccc3c(NCCCNCc3cccc(F)c3)c2c1` [SJ000521004] it was −366.2; in that of `CCc1ccc(CNCCCNc2c3ccc(Cl)cc3nc3ccc(OC)cc23)cc1` [SJ000521005], −390.4; in that of `COc1ccc2nc3cc(Cl)ccc3c(NCCCNCc3nccn3C)c2c1` [SJ000521006], −279.9. As to `CCCN(CCCNc1ccnc2cc(C(F)(F)F)ccc12)Cc1cncc(Br)c1` [SJ000521007], the TR-FRET signal under setting [2] was determined as 4.323.

Under setting [2], `CCCN(CCCNc1ccnc2cc(C(F)(F)F)ccc12)Cc1cccc(F)c1` [SJ000521008] displayed a TR-FRET signal of 27.85. Under setting [2], `CCCN(CCCNc1ccnc2cc(C(F)(F)F)ccc12)Cc1ccc(CC)cc1` [SJ000521009] registered a TR-FRET signal of 31.77.

Compound `CCCN(CCCNc1ccnc2cc(C(F)(F)F)ccc12)Cc1nc(C)cs1` [SJ000521010] came in with a TR-FRET signal under setting [2] of 0.8927. Consider `CCCN(CCCNc1ccnc2cc(C(F)(F)F)ccc12)CCOCc1ccccc1` [SJ000521011], for which, under setting [2], the TR-FRET signal is listed as 25.82. Consider `CCCN(CCCNc1ccnc2cc(C(F)(F)F)ccc12)Cc1ccc(OC)c(F)c1` [SJ000521013], for which, under setting [2], the TR-FRET signal was determined as 21.76. Under setting [2], `CCCN(CCCNc1ccnc2cc(C(F)(F)F)ccc12)Cc1cc(F)ccc1C` [SJ000521014] gave a TR-FRET signal of 20.64. `CCCN(CCCNc1ccnc2cc(C(F)(F)F)ccc12)Cc1ccc(Cl)c(C(F)(F)F)c1` [SJ000521015] gave a TR-FRET signal under setting [2] of 11.04. Same read-out and setting: to `Cn1cccc1CNCCCNc1ccnc2cc(Cl)ccc12` [SJ000521019] belongs 18.96; to `Cn1cc(CNCCCNc2ccnc3cc(Cl)ccc23)c2ccccc21` [SJ000521020], 18.47; to `COC(=O)CCCCCNCCCNc1ccnc2cc(Cl)ccc12` [SJ000521021], 39.12. On to `Clc1ccc2c(NCCCNCc3nccs3)ccnc2c1` [SJ000521023], for which, under setting [2], the TR-FRET signal came to 4.988. Under setting [2], `CC(C)(C)CCNCCCNc1ccnc2cc(Cl)ccc12` [SJ000521026] displayed a TR-FRET signal of 9.225. With `CCCCNCCCNc1ccnc2cc(Cl)ccc12` [SJ000521027], the TR-FRET signal under setting [2] came out at 8.454.

`Clc1ccc2c(NCCCNCc3cc(Br)cs3)ccnc2c1` [SJ000521028] displayed a TR-FRET signal under setting [2] of 22.11.

The compound `Clc1ccc2c(NCCCNCc3cc4ccccc4o3)ccnc2c1` [SJ000521029] gave a TR-FRET signal under setting [2] of 17.91. Under setting [2], `Clc1ccc2c(NCCCNCc3cc4ccccc4s3)ccnc2c1` [SJ000521032] gave a TR-FRET signal of 30.13. Regarding `Clc1ccc2c(NCCCNCc3csc4ccccc34)ccnc2c1` [SJ000521033], the TR-FRET signal under setting [2] is 33.38. In turn, `Clc1ccc2c(NCCCNCc3nc4ccccc4s3)ccnc2c1` [SJ000521034] registered a TR-FRET signal under setting [2] of 4.695. `Clc1ccc2c(NCCCNCc3cncc(Br)c3)ccnc2c1` [SJ000521037] showed a TR-FRET signal under setting [2] of 7.014.

Under setting [2], `Clc1ccc2c(NCCCNCC3CCOC3)ccnc2c1` (stereo not drawn) [SJ000521038] came in with a TR-FRET signal of 0.4026. Still for that read-out and setting: in the case of `Cn1ccnc1CNCCCNc1ccnc2cc(Cl)ccc12` [SJ000521040] it was 1.449; in that of `Cn1cccc1CNCCCNc1ccnc2cc(C(F)(F)F)ccc12` [SJ000521041], −6.879.

The values are drawn from patent US20240246941A1, “SUBSTITUTED 4-(3-AMINOPROP-1-YL)AMINOQUINOLINE ANALOGS AS MODULATORS OF MELANOMA-ASSOCIATED ANTIGEN 11 UBIQUITIN LIGASE” (ST. JUDE CHILDREN'S RESEARCH HOSPITAL, INC., priority 2020, published 2024).
